This is an account of results in publication PMC12040169 (PLOS Biology, 2025).

Molecules are shown by their SMILES.

The first series in a line: in vitro. The following applies: human, hela cells, % viability.
For orientation: viability means a read-out of living cells in per cent, often relative to untreated cells. On to `O=C(N/N=C\c1ccc(-c2ccc(Cl)c(Cl)c2)o1)C1COc2cc3ccccc3cc2O1` (stereo not drawn) [CBK262834], for which the viability at 28.5 h, 10 µM was found to be 99%.

As to `COc1c(O)ccc(/C=N\NC(=O)C2COc3cc4ccccc4cc3O2)c1[N+](=O)[O-]` (stereo not drawn) [CBK262836], the viability at 28.5 h, 10 µM was 86.9%.

As for `Cc1ccc(NC(=O)CN2C(=O)c3ccccc3C2=O)c(C(=O)O)c1` [CBK262837], the viability at 28.5 h, 10 µM came to 87.5%.

Regarding `CC(Oc1cccc2cccnc12)C(=O)N/N=C/c1ccc(-c2ccc(Br)cc2)o1` (stereo not drawn) [CBK262838], the viability at 28.5 h, 10 µM was 93.4%.

For the compound `O=C(NC(C(=O)N/N=C/c1ccc(O)cc1)c1n[nH]c(=O)c2ccccc12)c1ccccc1` (stereo not drawn) [CBK262839], the viability at 28.5 h, 10 µM was found to be 116%.

For `CC1(C)NC(=O)N(CC(O)COc2ccc([N+](=O)[O-])cc2)C1=O` (stereo not drawn) [CBK262840], the viability at 28.5 h, 10 µM was found to be 98.8%.

`COc1cc(/C=N/Nc2nc(-c3ccccc3)cc(-c3ccc(OC)c(OC)c3)n2)ccc1O` [CBK262841]: the viability at 28.5 h, 10 µM turned out to be 52.2%.

As to `Cc1nnc(SCC(=O)N/N=C/c2coc3ccccc3c2=O)n1-c1ccccc1` [CBK262842], the viability at 28.5 h, 10 µM is 90.3%.

Take `O=C(O)c1ccccc1-c1ccccc1C(=O)Nc1ccccc1-c1ccccc1` [CBK262843]: the viability at 28.5 h, 10 µM was determined as 84.4%.

With `CC1=CC(C)C2(COC(=O)Nc3ccccc3)COC(c3cccnc3)C1C2C` (stereo not drawn) [CBK262844], the viability at 28.5 h, 10 µM was 86.2%.

In the case of `O=C(Nc1cccc(-c2nc3ncccc3o2)c1)c1ccc(Cl)c([N+](=O)[O-])c1` [CBK262845], the viability at 28.5 h, 10 µM came out at 88.8%.

For the compound `CCOc1cccc(/C=N\NC(=O)C2COc3cc4ccccc4cc3O2)c1O` (stereo not drawn) [CBK262846], the viability at 28.5 h, 10 µM stood at 110%.

Consider `O=C(NC(C(=O)N/N=C/c1coc2ccccc2c1=O)c1n[nH]c(=O)c2ccccc12)c1ccccc1` (stereo not drawn) [CBK262847], for which the viability at 28.5 h, 10 µM worked out at 95.3%.

For the compound `O=[N+]([O-])c1ccc(N2CCNCC2)cc1NCCO` [CBK262851], the viability at 28.5 h, 10 µM came to 75.1%.

For `O=c1oc(-c2cccc(F)c2)nc2ccc(Cc3ccc4nc(-c5cccc(F)c5)oc(=O)c4c3)cc12` [CBK262856], the viability at 28.5 h, 10 µM stood at 120%.

In the case of `CC(=O)Nc1ccc(C(=O)Nc2ccc(-c3nc4ccccc4[nH]3)cc2)cc1` [CBK262857], the viability at 28.5 h, 10 µM came to 84.9%.

With `NNc1nc(-c2ccc(Br)cc2)nc2ccccc12` [CBK262860], the viability at 28.5 h, 10 µM worked out at 94.6%.

Consider `Cc1ccccc1NC(=O)Nc1ccc(OCc2ccccc2)cc1` [CBK262861], for which the viability at 28.5 h, 10 µM came out at 108%.

On to `O=C(CCN1C(=O)/C(=C/c2ccc(F)cc2)SC1=S)NNC(=O)c1cccnc1` [CBK262862], for which the viability at 28.5 h, 10 µM amounted to 104%.

Regarding `O=C(CSc1nnc(-c2ccccc2)n1-c1ccccc1)N/N=C/c1cccc2cccnc12` [CBK262863], the viability at 28.5 h, 10 µM worked out at 91%.

Turning to `Cc1cc(C)nc(N/N=C/c2cn(-c3ccccc3)nc2-c2ccc([N+](=O)[O-])cc2)n1` [CBK262864], the viability at 28.5 h, 10 µM worked out at 90.5%.

Take `O=C(CSc1nnc(-c2ccncc2)n1-c1ccccc1)N/N=C/c1coc2ccccc2c1=O` [CBK262866]: the viability at 28.5 h, 10 µM stood at 101%.

With `CCOc1ccc(C(=O)Nc2ccc(Cc3ccncc3)cc2)cc1[N+](=O)[O-]` [CBK262867], the viability at 28.5 h, 10 µM is 114%.

With `Cc1onc(-c2ccccc2)c1C(=O)NCCCn1ccnc1` [CBK262870], the viability at 28.5 h, 10 µM was found to be 96.2%.

Turning to `Cc1ccc(C(C)(C)CC(C)NC2C3CC4CC(C3)CC2C4)o1` (stereo not drawn) [CBK262871], the viability at 28.5 h, 10 µM came out at 93.9%.

On to `Cc1ccc(C(C)(C)CC(C)NCc2cccc(C(F)(F)F)c2)o1` (stereo not drawn) [CBK262872], for which the viability at 28.5 h, 10 µM is 95%.

Regarding `Cc1ccc(C(C)(C)CC(C)NCc2ccc(Cl)cc2)o1` (stereo not drawn) [CBK262873], the viability at 28.5 h, 10 µM was 95.8%.

Regarding `Cc1ccccc1-n1nnnc1C(c1ccccc1)N(C)Cc1cccc([N+](=O)[O-])c1` (stereo not drawn) [CBK262878], the viability at 28.5 h, 10 µM came to 91%.

Turning to `COc1ccc(CN2CCCn3c4c(c5cc(C)ccc53)CCCC42)cc1OCc1ccccc1` (stereo not drawn) [CBK262879], the viability at 28.5 h, 10 µM was determined as 96.4%.

In the case of `COc1cc(/C=N/NC(=O)c2n[nH]c3c2CCC3)ccc1O` [CBK262881], the viability at 28.5 h, 10 µM stood at 109%.

With `O=C(N/N=C/c1ccccn1)c1n[nH]c2c1CCCC2` [CBK262882], the viability at 28.5 h, 10 µM was 90.8%.

In the case of `O=C(N/N=C/c1c[nH]c2ccccc12)c1cc(-c2ccc3ccccc3c2)[nH]n1` [CBK262885], the viability at 28.5 h, 10 µM came to 54.8%.

For the compound `Cc1n[nH]c(C)c1CCC(=O)N/N=C/c1ccccn1` [CBK262887], the viability at 28.5 h, 10 µM is 92.9%.

With `Cc1n[nH]c(C)c1CCC(=O)N/N=C/c1ccncc1` [CBK262888], the viability at 28.5 h, 10 µM turned out to be 112%.

Regarding `COc1ccc(/C=N/NC(=O)CCc2c(C)n[nH]c2C)cc1O` [CBK262894], the viability at 28.5 h, 10 µM came out at 93.6%.

Regarding `N=c1n(CCN2CCOCC2)c2ccccc2n1CC(O)c1cccs1` (stereo not drawn) [CBK262895C], the viability at 28.5 h, 10 µM came out at 99.1%.

Turning to `CCCC1=NN(c2ccc([N+](=O)[O-])cc2)C(=O)/C1=C/NC1CC(C)(C)NC(C)(C)C1` [CBK262896], the viability at 28.5 h, 10 µM came to 84.9%.

Consider `OCCCn1c(-c2ccc(Cl)cc2)cn2c3ccccc3nc12` [CBK262900], for which the viability at 28.5 h, 10 µM was found to be 103%.

For `COC(=O)c1ccc(/C=N/NC(=O)CCc2c(C)n[nH]c2C)cc1` [CBK262904], the viability at 28.5 h, 10 µM was 117%.

For the compound `CC(C)(C)c1cc(-n2c(-c3cccnc3)nc3ccccc32)cc(C(C)(C)C)c1O` [CBK262907], the viability at 28.5 h, 10 µM was 103%.

On to `N=c1n(CCN2CCCCC2)c2ccccc2n1CC(O)c1cccs1` (stereo not drawn) [CBK262908C], for which the viability at 28.5 h, 10 µM was found to be 94.9%.

Regarding `CN1CCc2c(sc3c2C(=O)NC(/C=C\c2ccc([N+](=O)[O-])cc2)N3)C1` (stereo not drawn) [CBK262909], the viability at 28.5 h, 10 µM came to 86.3%.

For the compound `Cc1n[nH]c(C)c1CCC(=O)N/N=C/c1cccc(O)c1` [CBK262910], the viability at 28.5 h, 10 µM worked out at 97.7%.

Regarding `CCOc1ccc(C(O)Cn2c(=N)n(CCN3CCCCC3)c3ccccc32)cc1` (stereo not drawn) [CBK262913C], the viability at 28.5 h, 10 µM stood at 111%.

For the compound `N=c1n(CC(=O)O)c2ccccc2n1Cc1ccccc1Cl` [CBK262917B], the viability at 28.5 h, 10 µM amounted to 90.3%.

On to `COc1cc2c(cc1OC)CN(/C=N/c1sc3c(c1C#N)CC(C)(C)NC3(C)C)CC2` [CBK262918], for which the viability at 28.5 h, 10 µM was 105%.

`Cc1cc(=O)n2ncnc2n1COCCO` [CBK262919]: the viability at 28.5 h, 10 µM was determined as 97.4%.

Consider `CC1=NN(c2ccc([N+](=O)[O-])cc2)C(=O)/C1=C/NCCN1CCN(C(=O)c2ccc(F)cc2)CC1` [CBK262920], for which the viability at 28.5 h, 10 µM worked out at 95.1%.

For `CC1=NNC(=O)C1CCC(=O)N/N=C/C(Br)=C/c1ccccc1` (stereo not drawn) [CBK262929], the viability at 28.5 h, 10 µM was determined as 100%.

As to `O=C(Cn1nnc2ccccc21)N/N=C\c1cccc(Cl)c1Cl` [CBK262931], the viability at 28.5 h, 10 µM came out at 92.4%.

In the case of `C/C(=N/OCC(=O)Nc1oc(-c2ccccc2)c(-c2ccccc2)c1C#N)c1cccs1` [CBK262932], the viability at 28.5 h, 10 µM was determined as 89.6%.

As for `Cc1ccc(S(=O)(=O)NCCCN2CCOCC2)cc1C` [CBK262934], the viability at 28.5 h, 10 µM worked out at 96.6%.

`c1ccc(OCc2nc3c4c(-c5ccccc5)c(-c5ccccc5)oc4ncn3n2)cc1` [CBK262939]: the viability at 28.5 h, 10 µM is 94.6%.

As to `CNC(=S)N(Cc1ccc(S(N)(=O)=O)cc1)C1CC(=O)N(c2ccc(OC)cc2)C1=O` (stereo not drawn) [CBK262940], the viability at 28.5 h, 10 µM stood at 95.1%.

Regarding `CC1(C)CC(=O)C2=C(C1)c1c(ccc3ccccc13)NC2c1ccc(N2CCC(Cc3ccccc3)CC2)c([N+](=O)[O-])c1` (stereo not drawn) [CBK262944], the viability at 28.5 h, 10 µM is 94.2%.

With `CCn1c2ccccc2c2ccc(/C=N/NC(=O)c3ccc(O)cc3O)cc21` [CBK262948], the viability at 28.5 h, 10 µM stood at 56.9%.

As for `O=C(COc1ccc(Cl)cc1Br)NNC(=O)c1ccc(O)cc1` [CBK262950], the viability at 28.5 h, 10 µM worked out at 95.5%.

Consider `O=C(NCc1ccccc1)C(=O)NNC(=O)C12CC3CC(CC(C3)C1)C2` [CBK262951], for which the viability at 28.5 h, 10 µM was determined as 94.9%.

For the compound `COc1cc2c(cc1NC(=O)C/C(C)=N/NC(=O)c1ccoc1C)oc1ccccc12` [CBK262953], the viability at 28.5 h, 10 µM was 112%.

On to `O=C(NCCCn1ccnc1)c1ccccc1C(=O)c1ccccc1` [CBK262954], for which the viability at 28.5 h, 10 µM was 93.2%.

With `COc1ccccc1CC(=O)NNC(=O)c1ccco1` [CBK262956], the viability at 28.5 h, 10 µM was found to be 91.6%.

Consider `C/C(CC(=O)Nc1ccccc1C(N)=O)=N\NC(=O)c1ccoc1C` [CBK262957], for which the viability at 28.5 h, 10 µM was found to be 100%.

For `COc1cc2c(cc1NC(=O)c1cccc([N+](=O)[O-])c1)oc1ccccc12` [CBK262958], the viability at 28.5 h, 10 µM worked out at 94.4%.

For the compound `O=C(COc1ccccc1)Nc1ccc2oc(-c3cccnc3)nc2c1` [CBK262959], the viability at 28.5 h, 10 µM is 92.1%.

Consider `COc1cc(/C=C2/C(=O)N(c3ccc(Cl)c(C(=O)O)c3)N=C2C)ccc1Oc1nc2c(c(=O)n(C)c(=O)n2C)n1C` [CBK262962], for which the viability at 28.5 h, 10 µM was determined as 91.1%.

Take `Cc1ccc(N2NC(=O)/C(=C/c3ccc(-c4ccc5c(c4)C(=O)NC5=O)o3)C2=O)cc1C` [CBK262963]: the viability at 28.5 h, 10 µM was 81.6%.

With `O=C1NN(c2ccc(Br)cc2)C(=O)/C1=C\c1ccc(-c2ccc3c(c2)C(=O)NC3=O)o1` [CBK262968], the viability at 28.5 h, 10 µM is 111%.

On to `O=C1NN(c2cccc(Cl)c2)C(=O)/C1=C\c1ccc(-c2ccc3c(c2)C(=O)NC3=O)o1` [CBK262970], for which the viability at 28.5 h, 10 µM amounted to 93.4%.

As for `COc1cccc(C2CC(=O)c3c(ccc4ccccc34)N2)c1OC` (stereo not drawn) [CBK262971], the viability at 28.5 h, 10 µM is 94.1%.

Consider `NNC(=O)CNC(c1cc(Br)ccc1N)c1ccccc1Cl` (stereo not drawn) [CBK262977], for which the viability at 28.5 h, 10 µM was found to be 87.1%.

Take `COc1ccc(OC)c(NC(=O)CN2CCN(c3ccccn3)CC2)c1` [CBK262978]: the viability at 28.5 h, 10 µM was found to be 83.7%.

With `CC(CC(=O)C1C(C)C=CCC1(C)C)NNC(=O)c1ccccc1O` (stereo not drawn) [CBK262980], the viability at 28.5 h, 10 µM was found to be 91.6%.

Regarding `CCOC(=O)c1c(NC(=O)CCN2C(=O)c3cccc4cccc(c34)C2=O)sc2c1CCC2` [CBK262982], the viability at 28.5 h, 10 µM amounted to 111%.

Take `CCN(CC)CC(=O)Nc1ccc(Br)cc1C(=O)c1ccccc1` [CBK262983]: the viability at 28.5 h, 10 µM was 109%.

Still in this series, the particulars now being: human, hela cells, % viability, bulk resorufin, single well.
In the case of `Cn1c(=O)c2[nH]c(NN=C3C(=O)NC(=O)NC3=O)nc2n(C)c1=O` [CBK262891], the viability at 28.5 h, 10 µM amounted to 103%.
